Experimental data from ChEMBL document CHEMBL5260810, “Inhibition of bromodomain-containing protein 9 for the prevention of epigenetically-defined drug resistance” (Bioorg Med Chem Lett, 2017).

system: NCI-H2009; experiment: Cytotoxicity against human NCI-H2009 cells measured after 8 days; assay type: functional, cell-based; conditions: NCI-H2009, 192 h

Compound | IC50
C/C=C/Cn1cc(-c2cc(OC)c(C(=O)N3CCOCC3)cc2OC)c2cc(C)[nH]c2c1=O | 2 µM
C/C=C/Cn1cc(-c2ccc(C(C)(C)O)cc2OC)c2cc[nH]c2c1=O | 20 µM
C/C=C/Cn1cc(-c2ccc(C(=O)N3CCOCC3)cc2)c2cc[nH]c2c1=O | 20 µM

system: NCI-H2405; experiment: Cytotoxicity against human NCI-H2405 cells measured after 8 days; assay type: functional, cell-based; conditions: NCI-H2405, 192 h

Compound | IC50
C/C=C/Cn1cc(-c2cc(OC)c(C(=O)N3CCOCC3)cc2OC)c2cc(C)[nH]c2c1=O | 2 µM
C/C=C/Cn1cc(-c2ccc(C(C)(C)O)cc2OC)c2cc[nH]c2c1=O | 20 µM
C/C=C/Cn1cc(-c2ccc(C(=O)N3CCOCC3)cc2)c2cc[nH]c2c1=O | 20 µM

system: GA-10; experiment: Cytotoxicity against human GA-10 cells measured after 8 days; assay type: functional, cell-based; conditions: GA-10, 192 h

Compound | IC50
C/C=C/Cn1cc(-c2cc(OC)c(C(=O)N3CCOCC3)cc2OC)c2cc(C)[nH]c2c1=O | 2 µM
C/C=C/Cn1cc(-c2ccc(C(C)(C)O)cc2OC)c2cc[nH]c2c1=O | 20 µM
C/C=C/Cn1cc(-c2ccc(C(=O)N3CCOCC3)cc2)c2cc[nH]c2c1=O | 10.8 µM

target: Transcription initiation factor TFIID subunit 1-like (Homo sapiens, UniProt Q8IZX4); experiment: Binding affinity to human partial length TAF1L bromodomain 2 (Q1523 to D1654 residues) expressed in bacterial expression system by BROMOscan assay; conditions: not given
Sequence (Q8IZX4 whole entry, the tested form may be a part): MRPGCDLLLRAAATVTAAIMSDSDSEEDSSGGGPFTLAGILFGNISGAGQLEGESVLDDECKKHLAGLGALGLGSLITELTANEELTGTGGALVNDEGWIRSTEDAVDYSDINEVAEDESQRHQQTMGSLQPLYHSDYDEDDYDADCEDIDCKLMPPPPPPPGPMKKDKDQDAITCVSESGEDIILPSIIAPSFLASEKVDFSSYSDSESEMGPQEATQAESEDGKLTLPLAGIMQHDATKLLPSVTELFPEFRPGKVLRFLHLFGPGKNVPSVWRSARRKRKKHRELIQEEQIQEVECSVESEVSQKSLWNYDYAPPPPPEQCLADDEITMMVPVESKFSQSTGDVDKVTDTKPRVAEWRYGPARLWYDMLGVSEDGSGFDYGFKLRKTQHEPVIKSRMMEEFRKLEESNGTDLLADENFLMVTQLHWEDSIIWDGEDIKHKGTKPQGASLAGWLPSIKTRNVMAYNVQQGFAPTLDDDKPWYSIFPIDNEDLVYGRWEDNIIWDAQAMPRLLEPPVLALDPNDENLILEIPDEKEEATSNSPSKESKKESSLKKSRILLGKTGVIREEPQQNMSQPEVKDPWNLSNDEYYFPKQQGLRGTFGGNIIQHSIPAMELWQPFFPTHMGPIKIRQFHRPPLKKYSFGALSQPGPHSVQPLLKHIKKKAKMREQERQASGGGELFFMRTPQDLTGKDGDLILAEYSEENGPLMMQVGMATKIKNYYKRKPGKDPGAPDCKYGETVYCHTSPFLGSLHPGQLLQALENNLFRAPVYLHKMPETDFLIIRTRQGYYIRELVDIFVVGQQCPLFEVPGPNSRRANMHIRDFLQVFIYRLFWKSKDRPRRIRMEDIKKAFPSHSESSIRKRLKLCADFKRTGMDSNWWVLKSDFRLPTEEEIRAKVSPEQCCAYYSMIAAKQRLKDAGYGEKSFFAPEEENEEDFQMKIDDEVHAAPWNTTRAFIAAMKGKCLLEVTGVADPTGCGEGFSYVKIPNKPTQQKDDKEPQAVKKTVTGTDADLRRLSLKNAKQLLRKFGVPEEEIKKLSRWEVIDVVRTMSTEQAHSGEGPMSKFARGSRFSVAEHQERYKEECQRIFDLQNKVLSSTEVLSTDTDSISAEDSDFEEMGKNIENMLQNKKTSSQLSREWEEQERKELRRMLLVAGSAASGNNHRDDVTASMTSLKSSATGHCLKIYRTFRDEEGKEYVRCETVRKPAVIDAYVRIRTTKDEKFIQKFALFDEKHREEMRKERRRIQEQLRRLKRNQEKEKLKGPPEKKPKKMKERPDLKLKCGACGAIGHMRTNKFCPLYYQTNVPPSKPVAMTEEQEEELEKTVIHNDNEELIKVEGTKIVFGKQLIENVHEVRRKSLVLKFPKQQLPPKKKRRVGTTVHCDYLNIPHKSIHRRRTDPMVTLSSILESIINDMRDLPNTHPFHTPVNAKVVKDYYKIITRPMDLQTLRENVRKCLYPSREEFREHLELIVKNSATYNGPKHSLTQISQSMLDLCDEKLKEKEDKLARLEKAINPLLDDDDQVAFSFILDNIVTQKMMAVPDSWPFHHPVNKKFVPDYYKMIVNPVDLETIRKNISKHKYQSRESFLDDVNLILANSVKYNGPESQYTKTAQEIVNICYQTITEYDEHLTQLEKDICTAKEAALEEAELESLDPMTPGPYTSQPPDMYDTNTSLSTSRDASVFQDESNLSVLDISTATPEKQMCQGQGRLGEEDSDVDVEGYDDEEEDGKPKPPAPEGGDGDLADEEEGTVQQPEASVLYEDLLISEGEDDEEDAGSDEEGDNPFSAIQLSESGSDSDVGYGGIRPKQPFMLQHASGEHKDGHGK

Compound | Kd
C/C=C/Cn1cc(-c2cc(OC)c(C(=O)N3CCOCC3)cc2OC)c2cc(C)[nH]c2c1=O | > 10 µM
C/C=C/Cn1cc(-c2ccc(C(C)(C)O)cc2OC)c2cc[nH]c2c1=O | > 10 µM
C/C=C/Cn1cc(-c2ccc(C(=O)N3CCOCC3)cc2)c2cc[nH]c2c1=O | 0.61 µM
C/C=C/Cn1cc(-c2cc(OC)c(C(C)(C)O)cc2OC)c2cc(C)[nH]c2c1=O | > 10 µM

target: T1, Peregrin (Homo sapiens, UniProt P55201); experiment: Binding affinity to human partial length BRPF1 (E627 to G740 residues) expressed in bacterial expression system by BROMOscan assay; conditions: not given
T1 sequence (P55201 whole entry): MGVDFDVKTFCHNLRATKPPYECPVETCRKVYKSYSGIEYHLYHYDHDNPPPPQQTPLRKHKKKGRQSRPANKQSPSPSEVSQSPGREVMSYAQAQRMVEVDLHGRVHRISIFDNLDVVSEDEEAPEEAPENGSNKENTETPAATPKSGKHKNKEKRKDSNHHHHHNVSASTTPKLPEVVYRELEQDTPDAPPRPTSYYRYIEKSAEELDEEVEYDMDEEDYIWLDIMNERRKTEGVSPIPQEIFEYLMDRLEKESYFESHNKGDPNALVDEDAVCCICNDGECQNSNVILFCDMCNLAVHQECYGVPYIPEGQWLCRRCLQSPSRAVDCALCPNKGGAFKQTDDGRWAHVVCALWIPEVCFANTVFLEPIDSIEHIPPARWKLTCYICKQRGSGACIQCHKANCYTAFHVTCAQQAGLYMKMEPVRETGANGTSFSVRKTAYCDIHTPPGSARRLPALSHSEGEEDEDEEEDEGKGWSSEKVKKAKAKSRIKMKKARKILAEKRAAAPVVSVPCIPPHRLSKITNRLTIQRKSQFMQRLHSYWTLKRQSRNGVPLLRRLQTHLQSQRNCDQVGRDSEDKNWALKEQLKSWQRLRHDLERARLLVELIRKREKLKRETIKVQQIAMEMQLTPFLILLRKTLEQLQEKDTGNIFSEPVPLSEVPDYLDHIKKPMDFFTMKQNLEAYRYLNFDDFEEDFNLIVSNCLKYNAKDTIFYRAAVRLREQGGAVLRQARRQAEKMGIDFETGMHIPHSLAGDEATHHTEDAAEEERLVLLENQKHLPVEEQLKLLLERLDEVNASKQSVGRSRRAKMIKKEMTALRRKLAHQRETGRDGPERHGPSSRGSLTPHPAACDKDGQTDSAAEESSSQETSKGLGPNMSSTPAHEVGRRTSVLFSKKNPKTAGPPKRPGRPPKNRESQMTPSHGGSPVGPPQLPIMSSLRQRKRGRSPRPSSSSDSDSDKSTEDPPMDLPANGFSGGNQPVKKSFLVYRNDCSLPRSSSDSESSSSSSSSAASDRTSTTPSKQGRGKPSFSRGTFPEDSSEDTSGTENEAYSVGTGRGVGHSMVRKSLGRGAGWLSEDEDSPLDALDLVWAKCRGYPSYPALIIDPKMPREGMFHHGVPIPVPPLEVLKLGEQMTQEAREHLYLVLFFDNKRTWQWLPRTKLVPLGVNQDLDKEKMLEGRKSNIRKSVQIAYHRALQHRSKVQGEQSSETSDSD

Compound | Kd
C/C=C/Cn1cc(-c2cc(OC)c(C(=O)N3CCOCC3)cc2OC)c2cc(C)[nH]c2c1=O | > 10 µM
C/C=C/Cn1cc(-c2ccc(C(C)(C)O)cc2OC)c2cc[nH]c2c1=O | > 10 µM
C/C=C/Cn1cc(-c2ccc(C(=O)N3CCOCC3)cc2)c2cc[nH]c2c1=O | > 10 µM
C/C=C/Cn1cc(-c2cc(OC)c(C(C)(C)O)cc2OC)c2cc(C)[nH]c2c1=O | > 10 µM

system: MCF7; experiment: Cytotoxicity against human MCF7 cells measured after 8 days; assay type: functional, cell-based; conditions: MCF7, 192 h

Compound | IC50
C/C=C/Cn1cc(-c2cc(OC)c(C(=O)N3CCOCC3)cc2OC)c2cc(C)[nH]c2c1=O | 1.34 µM
C/C=C/Cn1cc(-c2ccc(C(C)(C)O)cc2OC)c2cc[nH]c2c1=O | 20 µM
C/C=C/Cn1cc(-c2ccc(C(=O)N3CCOCC3)cc2)c2cc[nH]c2c1=O | 20 µM

system: NCI-H1944; experiment: Cytotoxicity against human NCI-H1944 cells measured after 8 days; assay type: functional, cell-based; conditions: NCI-H1944, 192 h

Compound | IC50
C/C=C/Cn1cc(-c2cc(OC)c(C(=O)N3CCOCC3)cc2OC)c2cc(C)[nH]c2c1=O | 2 µM
C/C=C/Cn1cc(-c2ccc(C(C)(C)O)cc2OC)c2cc[nH]c2c1=O | 20 µM
C/C=C/Cn1cc(-c2ccc(C(=O)N3CCOCC3)cc2)c2cc[nH]c2c1=O | 20 µM

system: OPM-2; experiment: Cytotoxicity against human OPM-2 cells measured after 8 days; assay type: functional, cell-based; conditions: OPM-2, 192 h

Compound | IC50
C/C=C/Cn1cc(-c2cc(OC)c(C(=O)N3CCOCC3)cc2OC)c2cc(C)[nH]c2c1=O | 2 µM
C/C=C/Cn1cc(-c2ccc(C(C)(C)O)cc2OC)c2cc[nH]c2c1=O | 13.7 µM
C/C=C/Cn1cc(-c2ccc(C(=O)N3CCOCC3)cc2)c2cc[nH]c2c1=O | 10 µM

system: NAMALVA; experiment: Cytotoxicity against human NAMALVA cells measured after 8 days; assay type: functional, cell-based; conditions: 192 h

Compound | IC50
C/C=C/Cn1cc(-c2cc(OC)c(C(=O)N3CCOCC3)cc2OC)c2cc(C)[nH]c2c1=O | 2 µM
C/C=C/Cn1cc(-c2ccc(C(C)(C)O)cc2OC)c2cc[nH]c2c1=O | 20 µM
C/C=C/Cn1cc(-c2ccc(C(=O)N3CCOCC3)cc2)c2cc[nH]c2c1=O | 20 µM

species: Homo sapiens; experiment: Binding affinity to GABA-gated chloride channel (unknown origin) at 10 uM by antagonist radioligand-based assay relative to control; set-up: scale not given: the % may be the effect or the level left; conditions: time 60.0 min

Compound | Activity
C/C=C/Cn1cc(-c2cc(OC)c(C(=O)N3CCOCC3)cc2OC)c2cc(C)[nH]c2c1=O | 14%
C/C=C/Cn1cc(-c2ccc(C(C)(C)O)cc2OC)c2cc[nH]c2c1=O | 15%
C/C=C/Cn1cc(-c2ccc(C(=O)N3CCOCC3)cc2)c2cc[nH]c2c1=O | 4%

system: Daudi; experiment: Cytotoxicity against human Daudi cells measured after 8 days; assay type: functional, cell-based; conditions: 192 h

Compound | IC50
C/C=C/Cn1cc(-c2cc(OC)c(C(=O)N3CCOCC3)cc2OC)c2cc(C)[nH]c2c1=O | 2 µM
C/C=C/Cn1cc(-c2ccc(C(C)(C)O)cc2OC)c2cc[nH]c2c1=O | 3.77 µM
C/C=C/Cn1cc(-c2ccc(C(=O)N3CCOCC3)cc2)c2cc[nH]c2c1=O | 20 µM

system: CAL-12T; experiment: Cytotoxicity against human CAL-12T cells measured after 8 days; assay type: functional, cell-based; conditions: 192 h

Compound | IC50
C/C=C/Cn1cc(-c2cc(OC)c(C(=O)N3CCOCC3)cc2OC)c2cc(C)[nH]c2c1=O | 2 µM
C/C=C/Cn1cc(-c2ccc(C(C)(C)O)cc2OC)c2cc[nH]c2c1=O | 20 µM
C/C=C/Cn1cc(-c2ccc(C(=O)N3CCOCC3)cc2)c2cc[nH]c2c1=O | 20 µM

system: not listed separately; experiment: Cytotoxicity against human SNU-719 cells measured after 8 days; assay type: functional, cell-based; conditions: SNU-719, 192 h

Compound | IC50
C/C=C/Cn1cc(-c2cc(OC)c(C(=O)N3CCOCC3)cc2OC)c2cc(C)[nH]c2c1=O | 2 µM
C/C=C/Cn1cc(-c2ccc(C(C)(C)O)cc2OC)c2cc[nH]c2c1=O | 20 µM
C/C=C/Cn1cc(-c2ccc(C(=O)N3CCOCC3)cc2)c2cc[nH]c2c1=O | 20 µM

target: T2, Transcription intermediary factor 1-alpha (Homo sapiens, UniProt O15164); experiment: Binding affinity to human partial length TRIM24 (P790 to P977 residues) expressed in bacterial expression system by BROMOscan assay; conditions: not given
T2 sequence (O15164 whole entry): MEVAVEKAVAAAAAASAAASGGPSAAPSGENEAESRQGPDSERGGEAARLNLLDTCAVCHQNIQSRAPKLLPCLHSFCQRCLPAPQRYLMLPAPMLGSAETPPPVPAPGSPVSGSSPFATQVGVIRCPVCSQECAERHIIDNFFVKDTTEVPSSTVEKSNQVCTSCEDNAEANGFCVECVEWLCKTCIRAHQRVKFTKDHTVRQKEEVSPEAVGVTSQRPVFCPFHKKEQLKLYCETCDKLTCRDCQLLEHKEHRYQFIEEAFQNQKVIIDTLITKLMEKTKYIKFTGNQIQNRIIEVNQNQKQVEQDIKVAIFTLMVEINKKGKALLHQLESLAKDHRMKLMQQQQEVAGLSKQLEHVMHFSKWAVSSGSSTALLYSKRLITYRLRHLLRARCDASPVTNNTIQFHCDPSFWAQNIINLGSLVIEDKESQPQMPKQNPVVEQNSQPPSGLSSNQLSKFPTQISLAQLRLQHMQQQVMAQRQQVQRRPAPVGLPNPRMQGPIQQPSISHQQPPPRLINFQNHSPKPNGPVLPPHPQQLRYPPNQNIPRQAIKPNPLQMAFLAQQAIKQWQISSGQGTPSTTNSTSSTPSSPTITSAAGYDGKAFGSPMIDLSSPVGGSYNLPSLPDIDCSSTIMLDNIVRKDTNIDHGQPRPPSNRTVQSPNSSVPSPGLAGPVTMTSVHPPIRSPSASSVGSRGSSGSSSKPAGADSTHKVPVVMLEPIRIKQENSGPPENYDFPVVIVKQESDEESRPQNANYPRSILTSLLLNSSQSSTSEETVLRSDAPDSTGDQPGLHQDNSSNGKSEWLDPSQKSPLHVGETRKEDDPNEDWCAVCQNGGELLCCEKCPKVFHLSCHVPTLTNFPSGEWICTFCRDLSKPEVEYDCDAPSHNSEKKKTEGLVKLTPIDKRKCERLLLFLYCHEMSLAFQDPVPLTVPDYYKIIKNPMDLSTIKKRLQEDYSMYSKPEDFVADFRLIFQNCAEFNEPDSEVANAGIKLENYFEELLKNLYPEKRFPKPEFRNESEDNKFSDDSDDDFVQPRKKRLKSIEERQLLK

Compound | Kd
C/C=C/Cn1cc(-c2cc(OC)c(C(=O)N3CCOCC3)cc2OC)c2cc(C)[nH]c2c1=O | > 10 µM
C/C=C/Cn1cc(-c2ccc(C(C)(C)O)cc2OC)c2cc[nH]c2c1=O | > 10 µM
C/C=C/Cn1cc(-c2ccc(C(=O)N3CCOCC3)cc2)c2cc[nH]c2c1=O | 26 µM
C/C=C/Cn1cc(-c2cc(OC)c(C(C)(C)O)cc2OC)c2cc(C)[nH]c2c1=O | > 10 µM

system: not listed separately; experiment: Cytotoxicity against human KPL-1 cells measured after 8 days; assay type: functional, cell-based; conditions: KPL-1, 192 h

Compound | IC50
C/C=C/Cn1cc(-c2cc(OC)c(C(=O)N3CCOCC3)cc2OC)c2cc(C)[nH]c2c1=O | 2 µM
C/C=C/Cn1cc(-c2ccc(C(C)(C)O)cc2OC)c2cc[nH]c2c1=O | 17.5 µM
C/C=C/Cn1cc(-c2ccc(C(=O)N3CCOCC3)cc2)c2cc[nH]c2c1=O | 20 µM

system: IGROV-1; experiment: Cytotoxicity against human IGROV-1 cells measured after 8 days; assay type: functional, cell-based; conditions: IGROV-1, 192 h

Compound | IC50
C/C=C/Cn1cc(-c2cc(OC)c(C(=O)N3CCOCC3)cc2OC)c2cc(C)[nH]c2c1=O | 2 µM
C/C=C/Cn1cc(-c2ccc(C(C)(C)O)cc2OC)c2cc[nH]c2c1=O | 20 µM
C/C=C/Cn1cc(-c2ccc(C(=O)N3CCOCC3)cc2)c2cc[nH]c2c1=O | 20 µM
